Results taken from article PMC11302339, “A series of pyrimidine-based antifungals with anti-mold activity disrupt ER function in Aspergillus fumigatus” (Microbiology Spectrum, 2024).

Tests used:
[1] = tested on: C. neoformans ∆ire1; experiment: Susceptibility of ∆ire1 mutant on YPD plates; format: cell-based, Cryptococcus neoformans; conditions: YPD with 4 or 16 µg/mL 1, 30 °C, 72 hours
Description: To determine interactions of 1 with ER stress in Cryptococcus neoformans, an overnight culture of H99 was diluted to 1 × 10^6 CFU/mL, then three 10-fold dilutions were prepared. Three-microliter spots of each cell dilution were plated in triplicate on YPD containing DMSO or 4 µg/mL 1 in combination with DTT, brefeldin A, or tunicamycin. Plates were incubated at 37°C for 72 hours. Images are representative of two independent experiments performed in biological triplicate.
Supplemental Figure 3. 1 interacts with ER stress in C. neoformans but activity is not dependent on Ire1. A) Serial dilutions of C. neoformans H99 on YPD with DMSO or 4 µg/mL 1 combined with ER stresses Brefeldin A (BfA), DTT, or Tunicamycin (Tun). Plates were incubated at 37 °C for 72 hours. Representative images of two independent experiments with three biological replicates each. B) Serial dilutions of C. neoformans H99 wild type and ∆ire1 mutant on YPD containing 4 µg/mL 1, 16 µg/mL 1 or DMSO incubated at 30 °C for 72 hours.
Representative images of two independent experiments with three biological replicates each.
(1 picture or pasted object on this page, not shown here)

[2] = Protein binding analysis, brain; format: in vitro ADME

## OC1CC(c2cc(N3CCC(CCc4ccccc4)CC3)ncn2)C1 (stereo not drawn) [compound 1]
[1]
  susceptibility of ∆ire1 mutant vs wild type: did not show increased susceptibility
[2]; read-out: Corrected % Protein binding (converted)
  fraction unbound at 6 h, 5 µM: 0.0112
[2]; uncorrected
  fraction unbound: 0.1
